Patent US10350213B2 (AI Therapeutics, Inc., priority 2015, dated 2019)

Experiments:
Experiment in all cases: CellTiterGlo cell viability assay
Assay type in all cases: cell-based
[1] = tested on: CA46 (Human Burkitt's lymphoma)
Method: (§1) Briefly, test compounds (5 μl stock solution, 6×desired final well concentration) were dispensed to 384-well assay plates, TSC2−/− MEF cells (1000 cells per well in 25 μL of media) were added to the plates and the plates were incubated for 72 h (3 days) at 37° C. under an atmosphere of 5% CO2 in a humidified incubator for 3 days. Cell viability was determined with CellTiter-Glo® luminescence assay (Promega) per the manufacturer's instructions. Viability was expressed as a percentage of untreated control cells.
(§2) 35 cell lines were identified as sensitive to apilimod-induced cytotoxicity in this assay. The apilimod-sensitive cells included cells derived from several different cancers including non-Hodgkin's lymphoma, Hodgkin's lymphoma, colorectal cancer, and lung cancer. The most sensitive of those tested were non-Hodgkin's Lymphoma (NHL) cell lines. […] The only NHL subtype not sensitive in this assay was follicular.

[2] = tested on: COLO-320DM (Human Colorectal)
Method: as §1, §2

[3] = tested on: DB (Human B-cell lymphoma); conditions: Human DLBCL-GCB
Method: as §1, §2

[4] = tested on: DLD-1 (Human colorectal cancer)
Method: as §1, §2

[5] = tested on: Daudi (Human Burkitt's lymphoma)
Method: as §1, §2

[6] = tested on: EB1 (Human Burkitt's lymphoma)
Method: as §1, §2

[7] = tested on: GA-10 (Human Burkitt's lymphoma)
Method: as §1, §2

[8] = tested on: GRANTA-519 (Human Mantle Cell Lymphoma)
Method: as §1, §2

[9] = tested on: H1734 (Human lung carcinoma); conditions: NCI-H1734
Method: as §1, §2

[10] = tested on: HCT-15 (Human Colorectal)
Method: as §1, §2

[11] = tested on: HD-MyZ (Human Hodgkin's lymphoma)
Method: as §1, §2

[12] = tested on: HDLM-2 (Human Hodgkin's lymphoma)
Method: as §1, §2

[13] = tested on: HH (Human T-cell lymphoma)
Method: as §1, §2

[14] = tested on: HT-29 (Human Colorectal)
Method: as §1, §2

[15] = tested on: JeKo-1 (Human Mantle Cell Lymphoma)
Method: as §1, §2

[16] = tested on: KARPAS-422 (Human Diffuse Large B Cell Lymphoma -GCB); conditions: Human DLBCL-GCB
Method: as §1, §2

[17] = tested on: KG-1 (Human acute myelogenous leukemia)
Method: as §1, §2

[18] = tested on: KMH-2 (Human Hodgkin's lymphoma); conditions: KM-H2
Method: as §1, §2

[19] = tested on: L428 (Human Hodgkin's lymphoma); conditions: L-428
Method: as §1, §2

[20] = tested on: L540 (Human Hodgkin's lymphoma); conditions: L-540
Method: as §1, §2

[21] = tested on: LOVO (Human Colorectal)
Method: as §1, §2

[22] = tested on: MDST8 (Human colorectal cancer)
Method: as §1, §2

[23] = tested on: MOLT-4 (Human T-cell leukemia)
Method: as §1, §2

[24] = tested on: NCI-1975 (Human lung carcinoma)
Method: as §1, §2

[25] = tested on: NCI-H1650 (Human bronchioalveolar)
Method: as §1, §2

[26] = tested on: NCI-H1666 (Human bronchioalveolar)
Method: as §1, §2

[27] = tested on: Namalwa (Human Burkitt's lymphoma)
Method: as §1, §2

[28] = tested on: OCI-Ly19 (Human Diffuse Large B Cell Lymphoma -GCB); conditions: Human DLBCL-GCB
Method: as §1, §2

[29] = tested on: Pfeiffer (Human Diffuse Large B Cell Lymphoma -GCB); conditions: Human DLBCL-GCB
Method: as §1, §2

[30] = tested on: RL (Human Follicular B Cell Lymphoma)
Method: as §1, §2

[31] = tested on: Raji (Human Burkitt's lymphoma)
Method: as §1, §2

[32] = tested on: Rec-1 (Human Mantle Cell Lymphoma); conditions: Rec1
Method: as §1, §2

[33] = tested on: SUDHL-10 (Human Diffuse Large B Cell Lymphoma -GCB); conditions: SU-DHL10, Human DLBCL-GCB
Method: as §1, §2

[34] = tested on: SUDHL-6 (Human Diffuse Large B Cell Lymphoma -GCB); conditions: SU-DHL-6, Human DLBCL-GCB
Method: as §1, §2

[35] = tested on: SW1116 (Human colorectal cancer); conditions: SW 1116
Method: as §1, §2

[36] = tested on: SW1573 (Human bronchioalveolar)
Method: as §1, §2

[37] = tested on: SW620 (Human Colorectal); conditions: SW-620
Method: as §1, §2

[38] = tested on: Toledo (Human Diffuse Large B Cell Lymphoma -GCB); conditions: Human DLBCL-GCB
Method: as §1, §2

[39] = tested on: U-118 MG (Human neuroblastoma)
Method: as §1, §2

[40] = tested on: U937 (Human histiocytic lymphoma); conditions: U-937
Method: as §1, §2

With Cc1cccc(/C=N/Nc2cc(N3CCOCC3)nc(OCCc3ccccn3)n2)c1 [apilimod] the IC50 [1] was > 10000 nM, the IC50 [2] was 2060 nM and the IC50 [3] was 150 nM. For the same compound, the IC50 [4] was > 5000 nM, the IC50 [5] was 200 nM and the IC50 [6] was 174 nM. For the same compound, the IC50 [7] was 382 nM, the IC50 [8] was > 10000 nM and the IC50 [9] was 1500 nM. For the same compound, the IC50 [10] was 200 nM, the IC50 [11] was > 1000 nM and the IC50 [12] was > 1000 nM. For the same compound, the IC50 [13] was 3300 nM, the IC50 [14] was > 10000 nM and the IC50 ([15]; Homo sapiens, 72 h, 3-day CellTiterGlo assay) was < 100 nM. For the same compound, the IC50 ([15]; Human Mantle Cell Lymphoma) was 70 nM, the IC50 [16] was > 10000 nM and the IC50 [17] was > 2500 nM. For the same compound, the IC50 [18] was 181 nM, the IC50 [19] was 10000 nM and the IC50 [20] was > 1000 nM. The IC50 [21] was > 10000 nM, the IC50 [22] was 1000 nM and the IC50 [23] was 3300 nM. The IC50 [24] was > 10000 nM, the IC50 [25] was > 20000 nM and the IC50 [26] was 20000 nM. The IC50 [27] was 600 nM, the IC50 [28] was 380 nM and the IC50 [29] was 2620 nM. For the same compound, the IC50 [30] was > 10000 nM, the IC50 [31] was > 10000 nM and the IC50 [32] was 300 nM. It also gave an IC50 [33] of 20 nM, an IC50 [34] of 80 nM and an IC50 [35] of 1500 nM. For the same compound, the IC50 [36] was > 20000 nM, the IC50 [37] was 90 nM and the IC50 [38] was 270 nM. For the same compound, the IC50 [39] was > 10000 nM and the IC50 [40] was 106 nM.
